Like-named read-outs stand apart in the source and are kept apart here.
Columns and labels:
Pim-1 [1] = target: T1, Pim-1 (Homo sapiens (Human), UniProt P11309); assay: Pim enzyme assay (HTRF, 96-well), Pim-1; assay type: biochemical; conditions: full length recombinant Pim-1, biotinylated-BAD (S112) peptide, 10-point curve, 2 h RT, read-out: Pim-1 IC50 IP
Summary of the method: (§1)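 HTRF detection of biotinylated BAD (S112) phosphorylation by full-length recombinant His-tagged Pim-1 or Pim-2 in 60 mM Hepes pH 7.0, 0.05% BSA, 2 mM DTT at 22 °C: 2 h for Pim-1, 45 min for Pim-2. Stopped with EDTA; IC50 from 4-parameter logistic fit of percent of control.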

Pim-2 [2] = target: T2, Pim-2 (Homo sapiens (Human), UniProt Q9P1W9); assay: Pim enzyme assay (HTRF, 96-well), Pim-2; assay type: biochemical; conditions: full length recombinant Pim-2, biotinylated-BAD (S112) peptide, 10-point curve, 45 min RT, read-out: Pim-2 IC50 IP
Summary of the method: as §1

Pim-1 [3] = target: T1, Pim-1; assay: Pim-Mn enzyme assay (HTRF, 384-well), Pim-1; assay type: biochemical; conditions: read-out: Pim-1-Mn IC50 IP
Pim-2 [4] = target: T2, Pim-2; assay: Pim-Mn enzyme assay (HTRF, 384-well), Pim-2; assay type: biochemical; conditions: read-out: Pim-2-Mn IC50 IP
[5] = tested on: KMS-12-BM myeloma cell line; assay: Pim KMS-12 cell assay (phospho-BAD S112 / total BAD, MSD)
[6] = Pim-1 enzyme 5 pM, ATP 1.5 μM, BAD (S112) 0.5 μM, HTRF, 22-point curve
[7] = Pim-2 enzyme 0.5 pM, ATP 1.5 μM, BAD (S112) 0.5 μM, HTRF, 22-point curve
[8] = Homo sapiens, KMS-12-BM, read-out: KMS-12-BM IC50 IP, KMS-12-BM cells, phospho-BAD (S112) vs total BAD, 1 hour 50 min with compound
[9] = read-out: KMS-12-BM IC50 IP, KMS-12-BM cells, phospho-BAD (S112) vs total BAD, 1 hour 50 min with compound
[10] = Homo sapiens, KMS-12-BM, read-out: KMS-12-BM IC50 IP

T1 sequence (P11309 whole entry): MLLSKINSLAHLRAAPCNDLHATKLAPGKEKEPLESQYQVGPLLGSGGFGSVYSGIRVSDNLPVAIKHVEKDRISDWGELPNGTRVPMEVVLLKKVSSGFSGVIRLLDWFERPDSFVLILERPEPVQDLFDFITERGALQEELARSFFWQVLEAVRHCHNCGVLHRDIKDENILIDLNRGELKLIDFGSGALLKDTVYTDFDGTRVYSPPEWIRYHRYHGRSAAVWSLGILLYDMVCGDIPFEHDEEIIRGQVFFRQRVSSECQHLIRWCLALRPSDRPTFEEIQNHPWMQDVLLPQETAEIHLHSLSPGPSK
T2 sequence (Q9P1W9 whole entry): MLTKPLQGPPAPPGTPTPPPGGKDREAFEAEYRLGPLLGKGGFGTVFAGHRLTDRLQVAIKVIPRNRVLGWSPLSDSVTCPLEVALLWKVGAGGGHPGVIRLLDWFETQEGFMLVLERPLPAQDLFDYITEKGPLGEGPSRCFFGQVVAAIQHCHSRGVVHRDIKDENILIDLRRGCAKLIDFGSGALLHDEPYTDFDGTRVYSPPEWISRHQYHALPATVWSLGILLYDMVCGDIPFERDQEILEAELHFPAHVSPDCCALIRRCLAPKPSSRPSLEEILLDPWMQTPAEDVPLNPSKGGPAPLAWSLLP

| SMILES | IC50 (Pim-1 [1]) [nM] | IC50 (Pim-2 [2]) [nM] | IC50 (Pim-1 [3]; [6]) [nM] | IC50 (Pim-2 [4]; [7]) [nM] | IC50 [5, 8] [nM] | IC50 [5, 9] [nM] | IC50 [5, 10] [nM] | IC50 (Pim-1 [3]) [nM] | IC50 (Pim-2 [4]) [nM] |
| --- | --- | --- | --- | --- | --- | --- | --- | --- | --- |
| Cc1nc2cccc(-c3cc4c([nH]3)CCNC4=O)c2nc1NC(C)(C)CO [Example 201, 2-(3-((1-hydroxy-2-methylpropan-2-yl)amino)-2-methylquinoxalin-5-yl)-6,7-dihydro-1H-pyrrolo[3,2-c]pyridin-4(5H)-one] | 3 | 2.8 | 2.5 | 1.7 | 136 | – | – | – | – |
| Cc1nc2cccc(-c3cc4c([nH]3)CCNC4=O)c2nc1NC1(C)CCC1 [Example 144, 2-(2-methyl-3-((1-methylcyclobutyl)amino)quinoxalin-5-yl)-6,7-dihydro-1H-pyrrolo[3,2-c]pyridin-4(5H)-one] | 2 | 1.6 | 0.8 | 0.6 | 67.8 | – | – | – | – |
| Cc1nc2cccc(-c3cc4c([nH]3)CCNC4=O)c2nc1NC1CCC1 [Example 131, 2-(3-(cyclobutylamino)-2-methylquinoxalin-5-yl)-6,7-dihydro-1H-pyrrolo[3,2-c]pyridin-4(5H)-one] | 5 | 2.6 | 1.6 | 0.8 | 142 | – | – | – | – |
| O=C1NCCc2[nH]c(-c3cccc4ccc(Nc5ccc(F)cc5F)nc34)cc21 [Example 8, 2-(2-((2,4-difluorophenyl)amino)quinolin-8-yl)-6,7-dihydro-1H-pyrrolo[3,2-c]pyridin-4(5H)-one] | 2.8 | 12.7 | – | – | 1280 | – | – | – | – |
| O=C1NCCc2[nH]c(-c3cccc4ccc(Oc5ccccc5)nc34)cc21 [Example 37, 2-(2-phenoxyquinolin-8-yl)-6,7-dihydro-1H-pyrrolo[3,2-c]pyridin-4(5H)-one] | 5.9 | 13.9 | – | – | 5530 | – | – | – | – |
| Cc1nc2cccc(-c3cc4c([nH]3)CCNC4=O)c2nc1NC1CCOCC1 [Example 127, 2-(2-methyl-3-((tetrahydro-2H-pyran-4-yl)amino)quinoxalin-5-yl)-6,7-dihydro-1H-pyrrolo[3,2-c]pyridin-4(5H)-one] | 17.1 | 12.6 | – | – | 427 | – | – | – | – |
| CN(c1ccccc1)c1ccc2cccc(-c3cc4c([nH]3)CCNC4=O)c2n1 [Example 4, 2-(2-(methyl(phenyl)amino)quinolin-8-yl)-6,7-dihydro-1H-pyrrolo[3,2-c]pyridin-4(5H)-one] | 2.1 | 6.8 | – | – | – | – | 2340 | – | – |
| Cc1nc2cccc(-c3cc4c([nH]3)CCNC4=O)c2nc1NC1(CO)CCC1 [Example 146, 2-(3-((1-(hydroxymethyl)cyclobutyl)amino)-2-methylquinoxalin-5-yl)-6,7-dihydro-1H-pyrrolo[3,2-c]pyridin-4(5H)-one] | 8.9 | 7.9 | 6.5 | 3 | 481 | – | – | – | – |
| Cc1nc2cccc(-c3cc4c([nH]3)CCNC4=O)c2nc1NC1CC1 [Example 194, 2-(3-(cyclopropylamino)-2-methylquinoxalin-5-yl)-6,7-dihydro-1H-pyrrolo[3,2-c]pyridin-4(5H)-one] | 3.7 | 2 | – | – | 62.8 | – | – | – | – |
| O=C1NCCc2[nH]c(-c3cccc4ccc(O[C@H]5CCCNC5)nc34)cc21 [Example 92, (S)-2-(2-(piperidin-3-yloxy)quinolin-8-yl)-6,7-dihydro-1H-pyrrolo[3,2-c]pyridin-4(5H)-one] | 16.5 | 62 | – | – | 12200 | – | – | – | – |
| O=C1NCCc2[nH]c(-c3cccc4ccc(Oc5ccccc5Cl)nc34)cc21 [Example 103, 2-(2-(2-chlorophenoxy)quinolin-8-yl)-6,7-dihydro-1H-pyrrolo[3,2-c]pyridin-4(5H)-one] | 8.1 | 18.1 | – | – | – | – | 7730 | – | – |
| Nc1ccc(-c2ccc3cccc(-c4cc5c([nH]4)CCNC5=O)c3n2)c(F)n1 [Example 87, 2-(2-(6-amino-2-fluoropyridin-3-yl)quinolin-8-yl)-6,7-dihydro-1H-pyrrolo[3,2-c]pyridin-4(5H)-one] | 3.8 | 14.7 | – | – | 1780 | – | – | – | – |
| O=C1NCCc2[nH]c(-c3cccc4ccc(Oc5ccc(F)cc5F)nc34)cc21 [Example 10, 2-(2-(2,4-difluorophenoxy)quinolin-8-yl)-6,7-dihydro-1H-pyrrolo[3,2-c]pyridin-4(5H)-one] | 12.1 | 21.1 | – | – | 7490 | – | – | – | – |
| Cc1nc2cccc(-c3cc4c([nH]3)CCNC4=O)c2nc1NC1CC(F)(F)C1 [Example 145, 2-(3-((3,3-difluorocyclobutyl)amino)-2-methylquinoxalin-5-yl)-6,7-dihydro-1H-pyrrolo[3,2-c]pyridin-4(5H)-one] | 14.2 | 8.9 | – | – | 971 | – | – | 8.7 | 4.6 |
| O=C1NCCc2[nH]c(-c3cccc4ccc(Nc5ccccc5)nc34)cc21 [Example 2, 2-(2-(phenylamino)quinolin-8-yl)-6,7-dihydro-1H-pyrrolo[3,2-c]pyridin-4(5H)-one] | 1.6 | 8 | – | – | – | – | 708 | – | – |
| Cc1nc2cccc(-c3cc4c([nH]3)CCNC4=O)c2nc1NCC(C)(C)C [Example 147, 2-(2-methyl-3-(neopentylamino)quinoxalin-5-yl)-6,7-dihydro-1H-pyrrolo[3,2-c]pyridin-4(5H)-one] | 2.9 | 1.4 | 1.9 | 0.6 | 176 | – | – | – | – |

The next lines start with results.

| IC50 (Pim-1 [1]) [nM] | IC50 (Pim-2 [2]) [nM] | IC50 (Pim-1 [3]; [6]) [nM] | IC50 (Pim-2 [4]; [7]) [nM] | IC50 [5, 8] [nM] | IC50 [5, 9] [nM] | SMILES | IC50 [5, 10] [nM] | IC50 (Pim-1 [3]) [nM] | IC50 (Pim-2 [4]) [nM] |
| --- | --- | --- | --- | --- | --- | --- | --- | --- | --- |
| 0.7 | 0.8 | 0.3 | 0.4 | – | 440 | Cc1nc2cccc(-c3cc4c([nH]3)CCNC4=O)c2nc1N[C@H]1CC[C@@H](N)C1 (single isomer, unassigned) [Example 143, 2-(3-((cis-3-aminocyclopentyl)amino)-2-methylquinoxalin-5-yl)-6,7-dihydro-1H-pyrrolo[3,2-c]pyridin-4(5H)-one] | – | – | – |
| 0.3 | 0.7 | – | – | 1290 | – | O=C1NCCc2[nH]c(-c3cccc4ccc(Nc5cccnc5)nc34)cc21 [Example 38, 2-(2-(3-pyridinylamino)-8-quinolinyl)-1,5,6,7-tetrahydro-4H-pyrrolo[3,2-c]pyridin-4-one] | – | – | – |
| 1.9 | 5.3 | 0.7 | 1.4 | – | 2260 | Cc1nc2cccc(-c3cc4c([nH]3)CCNC4=O)c2nc1N[C@H]1CC[C@@H](N)C1 (single isomer, unassigned) [Example 142, 2-(3-((cis-3-aminocyclopentyl)amino)-2-methylquinoxalin-5-yl)-6,7-dihydro-1H-pyrrolo[3,2-c]pyridin-4(5H)-one] | – | – | – |
| 1.1 | 1.3 | – | – | 76.2 | – | Cc1nc2cccc(-c3cc4c([nH]3)CCNC4=O)c2nc1NC(C)(C)C [Example 193, 2-(3-(tert-butylamino)-2-methylquinoxalin-5-yl)-6,7-dihydro-1H-pyrrolo[3,2-c]pyridin-4(5H)-one] | – | – | – |
| 0.1 | 0.3 | – | – | 348 | – | N[C@@H]1CCC[C@H](Nc2ccc3cccc(-c4cc5c([nH]4)CCNC5=O)c3n2)C1 (single isomer, unassigned) [Example 122, 2-(2-((cis-3-aminocyclohexyl)amino)quinolin-8-yl)-6,7-dihydro-1H-pyrrolo[3,2-c]pyridin-4(5H)-one] | – | – | – |
| 1 | 12 | – | – | 2510 | – | O=C1NCCc2[nH]c(-c3cccc4ccc(N[C@H]5CCCNC5)nc34)cc21 [Example 123, (S)-2-(2-(piperidin-3-ylamino)quinolin-8-yl)-6,7-dihydro-1H-pyrrolo[3,2-c]pyridin-4(5H)-one] | – | – | – |
| 1.1 | 6 | – | – | 2340 | – | CCN(c1ccccc1)c1ccc2cccc(-c3cc4c([nH]3)CCNC4=O)c2n1 [Example 14, 2-(2-(ethyl(phenyl)amino)quinolin-8-yl)-6,7-dihydro-1H-pyrrolo[3,2-c]pyridin-4(5H)-one] | – | – | – |
| 1.5 | 1.6 | – | – | 165 | – | Cc1nc2cccc(-c3cc4c([nH]3)CCNC4=O)c2nc1Nc1ccccc1 [Example 183, 2-(2-methyl-3-(phenylamino)quinoxalin-5-yl)-6,7-dihydro-1H-pyrrolo[3,2-c]pyridin-4(5H)-one] | – | – | – |
